The values below come from publication PMC11544888, “Sustainable Primary Cell Banking for Topical Compound Cytotoxicity Assays: Protocol Validation on Novel Biocides and Antifungals for Optimized Burn Wound Care” (European Burn Journal, 2024).

≈ marks a conversion by molar mass, not a printed value.

A word on the MIC: it is the lowest concentration that inhibits growth of the organism. The IC50 is the concentration needed to halve the response being measured. A higher IC50 goes with a need for much substance.

Series [1] relates to cultured cells (HaCaT keratinocytes, primary dermal fibroblasts, ASCs). Description: In vitro cytotoxicity model overall (cell type not given). The series is classed as cell-based, human. As to the method: All of the samples were prepared on the day of the assays. Each product/stock solution was diluted with CfM or CAM until the desired concentration ranges were obtained for the in vitro cytotoxicity assessments, based on OECD recommendations (i.e., with serial dilutions). The tested CLX- and HOCl-based biocides were used as received, apart from dilution with cell culture medium. To perform the cytotoxicity assays, WCB II vials of primary cells and vials of control cell lines (i.e., HaCaT keratinocytes) were thawed and were expanded to confluency. The cells were then harvested and seeded in 24-well plates at densities of 3 × 10^3 and 6 × 10^3 cells/well. The cultures were maintained for 7 days as described previously. The test items were then dispensed in the wells of the culture plates, following dilution in CfM or CAM. The Vashe® source was tested for cytotoxicity at final HOCl concentrations of 786-6290 μM. The Brio® source was tested for cytotoxicity at final HOCl concentrations of 596-4766 μM. The CLX source was tested for cytotoxicity at final concentrations of 0.2-1978 μM. […] The retained test item experimental concentrations were selected based on the OECD […] guideline and on high-throughput screening principles. After 48 h of cell treatment with the test items, the solutions were removed and a 10% solution of CellTiter® (Promega, Madison, WI, USA) in CfM or CAM was added in every well for assessment of cellular viability. The plates were then placed in the incubator for 90 min. The solutions were transferred to a 96-well plate and were analyzed on a Varioskan LUX 3020 spectrophotometer (ThermoFisher Scientific, Waltham, MA, USA) at 490 nm with agitation. Following the cytotoxicity model validation in 24-well plates, the same procedure was used for optimization and upscaling in 96-well plates. The culture plates were seeded with 5 × 10^3 cells/well (i.e., for primary cells) and 10^4 cells/well (i.e., for HaCaT keratinocytes) in a CfM volume of 100 μL per well. […]

The test system of series [2] is most medically relevant test strains of yeast. The arrangement: method as in PMID 27088128, PMID 27645246. As to conditions: cited from earlier work.
Another series concerns HaCaT keratinocytes. Briefly: In vitro cytotoxicity assay (CellTiter viability) in HaCaT keratinocytes. The format is cell-based, human. As to conditions: 48 h treatment. The method, then: (§1) All of the samples were prepared on the day of the assays. Each product/stock solution was diluted with CfM or CAM until the desired concentration ranges were obtained for the in vitro cytotoxicity assessments, based on OECD recommendations (i.e., with serial dilutions). The tested CLX- and HOCl-based biocides were used as received, apart from dilution with cell culture medium.
(§2) To perform the cytotoxicity assays, WCB II vials of primary cells and vials of control cell lines (i.e., HaCaT keratinocytes) were thawed and were expanded to confluency. The cells were then harvested and seeded in 24-well plates at densities of 3 × 10^3 and 6 × 10^3 cells/well. The cultures were maintained for 7 days as described previously. The test items were then dispensed in the wells of the culture plates, following dilution in CfM or CAM. […] Regarding the AR-12 antifungal compound, cytotoxicity was assessed for a concentration range of 0.27–139 µM. […]
(§3) After 48 h of cell treatment with the test items, the solutions were removed and a 10% solution of CellTiter® (Promega, Madison, WI, USA) in CfM or CAM was added in every well for assessment of cellular viability. […] The solutions were transferred to a 96-well plate and were analyzed on a Varioskan LUX 3020 spectrophotometer (ThermoFisher Scientific, Waltham, MA, USA) at 490 nm with agitation. […]

Series [3] relates to primary dermal fibroblasts. Description: In vitro cytotoxicity assay (CellTiter viability) in polydactyly-derived primary dermal fibroblasts. The series is classed as cell-based, human. As to the method:
All of the samples were prepared on the day of the assays. Each product/stock solution was diluted with CfM or CAM until the desired concentration ranges were obtained for the in vitro cytotoxicity assessments, based on OECD recommendations (i.e., with serial dilutions). The tested CLX- and HOCl-based biocides were used as received, apart from dilution with cell culture medium. To perform the cytotoxicity assays, WCB II vials of primary cells and vials of control cell lines (i.e., HaCaT keratinocytes) were thawed and were expanded to confluency. The cells were then harvested and seeded in 24-well plates at densities of 3 × 10^3 and 6 × 10^3 cells/well. The cultures were maintained for 7 days as described previously. The test items were then dispensed in the wells of the culture plates, following dilution in CfM or CAM. The Vashe® source was tested for cytotoxicity at final HOCl concentrations of 786-6290 μM. The Brio® source was tested for cytotoxicity at final HOCl concentrations of 596-4766 μM. The CLX source was tested for cytotoxicity at final concentrations of 0.2-1978 μM. […] The solutions were transferred to a 96-well plate and were analyzed on a Varioskan LUX 3020 spectrophotometer (ThermoFisher Scientific, Waltham, MA, USA) at 490 nm with agitation. […]

The subject of series [4] is adipose-derived stem cells (ASC). Briefly: In vitro cytotoxicity assay (CellTiter viability) in polydactyly-derived ASCs. The series is classed as cell-based, human. As to the method:
as §1, §2, §3

For `[H]/N=C(\N/C(=N/[H])NCCCCCCNC(=N)NC(=N)Nc1ccc(Cl)cc1)Nc1ccc(Cl)cc1` [CLX, chlorhexidine], the “dilution needed to avoid toxicity in cultured cells” value in series [1] (human, 48 h) was 10- and 100.
Consider `OCl` [HOCl, hypochlorous acid], for which the “comparative in vitro cytotoxicity” value in series [1] (Figures 4-6) is “less toxicity than CLX”. For the same compound, in series [1] (in vitro data gathered herein, 50 times lower than 100–200 ppm in-use doses), the “dose showing in vitro cytotoxicity” value is 4 µg/mL.
Take `NCC(=O)Nc1ccc(-n2nc(C(F)(F)F)cc2-c2ccc3c(ccc4ccccc43)c2)cc1` [AR-12]: the MIC in series [2] is on record as 8 µM (≈ 3.68 µg/mL). The IC50 in the series on HaCaT keratinocytes was 9.96 ± 0.35 µM; in series [3] (48 h treatment, CellTiter viability), 10.7 ± 0.27 µM. The cytotoxicity values in series [3] and in series [4] was 4 to 8 µg/mL throughout.
